The results in this text go back to patent US20210322450A1, “APPLICATION OF COMPOSITION CONTAINING NICOTINAMIDE MONONUCLEOTIDE IN ANTI-AGING DRUGS/HEALTHCARE PRODUCTS” (HOBOOMLIFE BIO-TECHNOLOGY (SHENZHEN) CO., LTD., priority 2019, published 2021).

This experiment concerns ex-vivo carotid artery segment of the mouse. As to the kind of experiment: Ex-vivo carotid artery segment incubated with TEMPOL in vitro (EDD). The arrangement: species or system C57BL/6 male mice. On the procedure: After 8 weeks, the mice were anesthetized with isoflurane and euthanized by bloodletting through cardiac puncture. The carotid artery was excised, the […] was inserted into the tip of a glass micropipette, and fixed with a nylon suture in a myograph chamber (DMTInc., Ann Arbor, Mich., USA) containing a buffered saline solution.
The artery was pressurized to 50 mm Hg at 37° C. and equilibrated for 45 minutes before the experiment. After sub-polar contraction was performed using phenylephrine (2 μM), the diameter of the arterial lumen was increased to the degree of response of acetylcholine (Ach: 1×10^−91×10^−4 M), and the arterial tube treated with acetylcholine was used to determine […] dilation by vasodilation in response to NO donor sodium nitroprusside (SNP: 1×10^−101×10^−4 M). Calculated according to the following formula, the vasodilation response was recorded as the actual diameter due to the difference in the maximum carotid artery diameter of the young and old animals, expressed as a percentage of the maximum reaction. The formula is as follows:
Dilation (%)=(Ds−Db)/(Dm−Db)×100%;
wherein, Dm is the maximum diameter of the lumen under a pressure of 50 mm Hg pressure; Db is the steady-state lumen diameter after pre-contraction before the first addition of the drug; Ds is the steady-state lumen diameter recorded after the drug is added.

Turning to `CC1(C)CC(O)CC(C)(C)N1[O]` [TEMPOL, 4-hydroxy-2,2,6,6-tetramethylpiperidin-1-yloxy], the “EDD of the carotid artery after incubation in vitro” value by setting is: (old control group) “restored the EDD”; (other groups (young control, young and old experimental groups)) “no effect”.
